These results are taken from patent US12281149B2, “Modulators of G-protein coupled receptors” (priority 2021, dated 2025).

Each structure is given as a SMILES string. *1 amine or outer side, *2 acyl side, *3 side chain or, on linkers, in order; H or OH if unused. Where a SMILES comes first, the peptide text is derived from it. Side-chain parts run from the residue outwards. [ ]: non-standard residue; d: D form. The star is where a group is joined. Isobutyryl(2-(3-CN-5-F-Ph)) = CC(C)(C(=O)*)c1cc(F)cc(C#N)c1; C20 diacid = O=C(O)CCCCCCCCCCCCCCCCCCC(=O)*; γGlu = O=C(O)[C@H](CCC(=O)[*:2])N[*:1]; X21 = O=C(C(CN[*:1])C(F)(F)F)[*:2]; X27 = O=C1CC(C(=O)*)(c2ccccc2)CN1; X1 = CC(C)(C(=O)*)c1cccnc1; AEEA = NCCOCCOCC(=O)O; Aib = CC(C)(N)C(=O)O; GABA = NCCCC(=O)O; βAla = NCCC(=O)O

Type in all cases: cell-based
Experiment [1] deals with T1, GLP-1 receptor (Homo sapiens, UniProt P43220). Kind of experiment: HitHunter cAMP assay, GLP-1 receptor. The note with it: for EC50: CHO cells stably expressing human GLP-1 receptor, cAMP accumulation, 30 min, read-out: EC50 GLP-1R; for Emax: CHO cells, cAMP, normalized to maximum signal from GLP-1 (high) and DMSO (low), read-out: Emax GLP-1R.
T1 sequence (P43220 24-463): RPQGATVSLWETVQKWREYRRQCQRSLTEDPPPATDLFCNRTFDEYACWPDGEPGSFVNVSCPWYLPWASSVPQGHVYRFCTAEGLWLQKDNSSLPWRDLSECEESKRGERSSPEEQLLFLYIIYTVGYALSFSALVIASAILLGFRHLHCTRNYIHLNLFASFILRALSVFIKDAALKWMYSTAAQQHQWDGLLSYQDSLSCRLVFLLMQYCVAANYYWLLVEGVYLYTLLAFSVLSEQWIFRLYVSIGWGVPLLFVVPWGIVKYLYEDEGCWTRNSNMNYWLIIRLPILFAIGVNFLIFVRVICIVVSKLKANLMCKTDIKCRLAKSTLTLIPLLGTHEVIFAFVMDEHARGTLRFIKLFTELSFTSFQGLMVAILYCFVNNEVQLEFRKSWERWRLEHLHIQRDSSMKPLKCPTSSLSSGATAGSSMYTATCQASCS
Method: CAMP accumulation was measured in Chinese hamster ovary (CHO) cells stably expressing the human GLP-1 receptor or GIP receptor using the HitHunter CAMP Assay for Small Molecules Kit (Eurofins). Briefly, cells were grown in Ham's F12 Nutrient Mix with 10% FBS and lifted with Cell dissociation buffer, Enzyme free, PBS based (ThermoFisher). Cells were pelleted and resuspended in Hank's buffered saline solution with 10 mM Hepes and 625 μM 3-isobutyl-1-methylxanthine. The antibody reagent was then added to cells at a 1:2 ratio and 5 μL of mixture was seeded in 384-well small volume white assay plates, at 10,000 cells/well. Cells were then treated with 50 nl compound in DMSO using an ECHO 550 acoustic dispenser (Labcyte) in a 20-point dose response format in triplicate for 30 min. Cells were the lysed and detection reagents added according to the manufacturer's protocol. After overnight incubation, luminescence was measured using a Perkin Elmer Envision plate reader. Raw data was normalized to the maximum signal from GLP-1 or GIP (high) and DMSO (low). Dose response curves were analyzed using GraphPad Prism 9.0.
Experiment [2] addresses T1, GLP-1 receptor. Kind of experiment: PathHunter β-arrestin assay, GLP-1 receptor. The conditions noted are these: β-arrestin-2 recruitment, PathHunter CHO-K1 GLP1R β-Arrestin Cell Line, 90 min at 37° C.; normalized to GLP-1; read-out: GLP-1R β Arrestin EC50. Set-up: host or cells: PathHunter CHO-K1 GLP1R β-Arrestin Cell Line.
Method: β-arrestin-2 recruitment for GLP-1 receptor or GIP receptor was measured using the DiscoverX PathHunter Detection Kit and PathHunter® CHO-K1 GLPIR β-Arrestin Cell Line or PathHunter® CHO-K1 GIPR β-Arrestin Cell Line, respectively). Briefly, cells were grown in Ham's F12 Nutrient Mix with 10% FBS and lifted with Cell dissociation buffer, Enzyme free, PBS based (ThermoFisher). Harvested cells were pelleted and resuspended in Assay Complete Cell Plating Reagent 2 and 5000 cells per well were plated in tissue culture treated 384-well small volume white assay plates. Plates were then incubated at 37° C. and 5% CO2 overnight. The media was then replaced with fresh Assay Complete Cell Plating Reagent 2. Cells were then treated with 10 nl compound in DMSO using an ECHO 550 acoustic dispenser (Labcyte) in a 20-point dose response format in duplicate for 90 min at 37° C. The assay was then completed according to the manufacturer's instructions. Luminescence was measured using a Perkin Elmer Envision plate reader. Raw data was normalized to the maximum signal from GLP-1 or GIP (high) and DMSO (low). Dose response curves were analyzed using GraphPad Prism 9.0.
The target in experiment [3] is T2, GIP receptor (Homo sapiens, UniProt P48546).
T2 sequence (P48546 22-466): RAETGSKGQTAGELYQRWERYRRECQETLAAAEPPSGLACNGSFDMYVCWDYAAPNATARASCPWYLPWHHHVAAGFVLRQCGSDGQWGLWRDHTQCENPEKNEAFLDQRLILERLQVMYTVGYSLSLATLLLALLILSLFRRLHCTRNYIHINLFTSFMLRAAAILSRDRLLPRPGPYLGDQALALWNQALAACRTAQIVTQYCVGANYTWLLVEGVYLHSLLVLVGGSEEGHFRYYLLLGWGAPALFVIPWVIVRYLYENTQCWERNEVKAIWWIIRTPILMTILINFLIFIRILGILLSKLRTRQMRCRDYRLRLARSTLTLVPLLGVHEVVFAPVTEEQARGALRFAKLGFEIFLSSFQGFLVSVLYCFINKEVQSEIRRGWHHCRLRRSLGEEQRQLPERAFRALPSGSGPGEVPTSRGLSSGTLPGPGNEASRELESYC
Kind of experiment: HitHunter cAMP assay, GIP receptor. The conditions noted are these: for EC50: CHO cells stably expressing GIP receptor, cAMP accumulation, 30 min, read-out: EC50 GIP-1R; for Emax: CHO cells, cAMP, normalized to maximum signal from GIP (high) and DMSO (low), read-out: Emax GIP-1R.

For experiment [4], the target named is T2, GIP receptor. Kind of experiment: PathHunter β-arrestin assay, GIP receptor. The note with it: β-arrestin-2 recruitment, PathHunter CHO-K1 GIPR β-Arrestin Cell Line, 90 min at 37° C.; normalized to GIP; read-out: GIPR β Arrestin EC50. The arrangement: host or cells: PathHunter CHO-K1 GIPR β-Arrestin Cell Line.

For `CC[C@H](C)[C@H](NC(=O)[C@H](CO)NC(=O)[C@H](Cc1ccc(O)cc1)NC(=O)[C@H](CC(=O)O)NC(=O)[C@H](CO)NC(=O)[C@@H](NC(=O)[C@H](Cc1ccccc1)NC(=O)[C@@H](NC(=O)CNC(=O)[C@H](CCC(=O)O)NC(=O)CCNC(=O)C(C)(C)c1cc(F)cc(C#N)c1)[C@@H](C)O)[C@@H](C)O)C(=O)N[C@@H](Cc1ccc(O)cc1)C(=O)N[C@@H](CC(C)C)C(=O)N[C@@H](CC(=O)O)C(=O)N[C@@H](CCCCN)C(=O)N[C@@H](CCC(N)=O)C(=O)N[C@@H](C)C(=O)N[C@@H](C)C(=O)NC(C)(C)C(=O)N[C@@H](CCC(=O)O)C(=O)N[C@@H](Cc1ccccc1)C(=O)N[C@H](C(=O)N[C@@H](CCCCNC(=O)COCCOCCNC(=O)COCCOCCNC(=O)CC[C@H](NC(=O)CCCCCCCCCCCCCCCCCCC(=O)O)C(=O)O)C(=O)N[C@@H](Cc1c[nH]c2ccccc12)C(=O)N[C@@H](CC(C)C)C(=O)N[C@@H](CC(C)C)C(=O)N[C@@H](C)C(=O)NCC(=O)NCC(=O)N1CCC[C@H]1C(=O)N[C@@H](CO)C(=O)N[C@@H](CO)C(=O)NCC(=O)N[C@@H](C)C(=O)N1CCC[C@H]1C(=O)N1CCC[C@H]1C(=O)N1CCC[C@H]1C(=O)N[C@@H](CO)C(N)=O)C(C)C` [Compound 103] ({Isobutyryl(2-(3-CN-5-F-Ph))-βAla}-EGTFTSDYSIYLDKQAA[Aib]EFVK([AEEA-AEEA-γGlu-C20 diacid])WLLAGGPSSGAPPPS-NH2), the half-maximal effective concentration (EC50) was 0.1 to 1 nM in experiment [1], over 1000 nM in experiment [2], 10 to 100 nM in experiment [3] and over 1000 nM in experiment [4]. For the same compound, the Emax in experiment [1] was found to be 89%; in experiment [3], 96%.

`CC[C@H](C)[C@H](NC(=O)[C@H](CCCCN)NC(=O)[C@H](CC(=O)O)NC(=O)[C@H](CC(C)C)NC(=O)C(C)(C)NC(=O)[C@@H](NC(=O)[C@H](CO)NC(=O)[C@H](Cc1ccc(O)cc1)NC(=O)[C@H](CC(=O)O)NC(=O)[C@H](CO)NC(=O)[C@@H](NC(=O)[C@H](Cc1ccccc1)NC(=O)[C@@H](NC(=O)CNC(=O)[C@H](CCC(=O)O)NC(=O)CCNC(=O)C(C)(C)c1cc(F)cc(C#N)c1)[C@@H](C)O)[C@@H](C)O)[C@@H](C)CC)C(=O)N[C@@H](C)C(=O)N[C@@H](CCC(N)=O)C(=O)N[C@@H](CCCCNC(=O)COCCOCCNC(=O)COCCOCCNC(=O)CC[C@H](NC(=O)CCCCCCCCCCCCCCCCCCC(=O)O)C(=O)O)C(=O)N[C@@H](C)C(=O)N[C@@H](Cc1ccccc1)C(=O)N[C@H](C(=O)N[C@@H](CCC(N)=O)C(=O)N[C@@H](Cc1c[nH]c2ccccc12)C(=O)N[C@@H](CC(C)C)C(=O)N[C@@H](CC(C)C)C(=O)N[C@@H](C)C(=O)NCC(=O)NCC(=O)N1CCC[C@H]1C(=O)N[C@@H](CO)C(=O)N[C@@H](CO)C(=O)NCC(=O)N[C@@H](C)C(=O)N1CCC[C@H]1C(=O)N1CCC[C@H]1C(=O)N1CCC[C@H]1C(=O)N[C@@H](CO)C(N)=O)C(C)C` [Compound 190] ({Isobutyryl(2-(3-CN-5-F-Ph))-βAla}-EGTFTSDYSI[Aib]LDKIAQK([AEEA-AEEA-γGlu-C20 diacid])AFVQWLLAGGPSSGAPPPS-NH2): the 50% effective concentration (EC50) in experiment [1] was 1 to 10 nM; in experiment [2], over 1000 nM; in experiment [3], 1 to 10 nM; in experiment [4], over 1000 nM. In addition, the figures for the maximal effect (Emax) in experiment [1] and in experiment [3] were 98% and 100%, respectively.

Consider `CC[C@H](C)[C@H](NC(=O)[C@H](CC(C)C)NC(=O)[C@H](Cc1c[nH]c2ccccc12)NC(=O)[C@H](CCC(N)=O)NC(=O)[C@@H](NC(=O)[C@H](Cc1ccccc1)NC(=O)[C@H](C)NC(=O)[C@H](CCCCNC(=O)COCCOCCNC(=O)COCCOCCNC(=O)CC[C@H](NC(=O)CCCCCCCCCCCCCCCCCCC(=O)O)C(=O)O)NC(=O)[C@H](CCC(N)=O)NC(=O)[C@H](C)NC(=O)[C@@H](NC(=O)[C@H](CCCCN)NC(=O)[C@H](CC(=O)O)NC(=O)[C@H](CC(C)C)NC(=O)C(C)(C)NC(=O)[C@@H](NC(=O)[C@H](CO)NC(=O)[C@H](Cc1ccc(O)cc1)NC(=O)[C@H](CC(=O)O)NC(=O)[C@H](CO)NC(=O)[C@@H](NC(=O)[C@H](Cc1ccccc1)NC(=O)[C@@H](NC(=O)CNC(=O)[C@H](CCC(=O)O)NC(=O)C(CNC(=O)C(C)(C)c1cc(F)cc(C#N)c1)C(F)(F)F)[C@@H](C)O)[C@@H](C)O)[C@@H](C)CC)[C@@H](C)CC)C(C)C)C(=O)N[C@@H](C)C(=O)NCC(=O)NCC(=O)N1CCC[C@H]1C(=O)N[C@@H](CO)C(=O)N[C@@H](CO)C(=O)NCC(=O)N[C@@H](C)C(=O)N1CCC[C@H]1C(=O)N1CCC[C@H]1C(=O)N1CCC[C@H]1C(=O)N[C@@H](CO)C(N)=O` (stereo partly drawn) [Compound 165] ({Isobutyryl(2-(3-CN-5-F-Ph))}-[X21]EGTFTSDYSI[Aib]LDKIAQK([AEEA-AEEA-γGlu-C20 diacid])AFVQWLIAGGPSSGAPPPS-NH2), for which the EC50 in experiment [1] was 10 to 100 nM; in experiment [2] it was over 1000 nM; in experiment [3], 100 to 1000 nM; in experiment [4], over 1000 nM. For the same compound, the results for the Emax in experiment [1] and in experiment [3] were 111% and 92%, respectively.

As to `CC[C@H](C)[C@H](NC(=O)[C@H](CC(C)C)NC(=O)[C@H](Cc1c[nH]c2ccccc12)NC(=O)[C@H](CCC(N)=O)NC(=O)[C@@H](NC(=O)[C@H](Cc1ccccc1)NC(=O)[C@H](C)NC(=O)[C@H](CCCCNC(=O)COCCOCCNC(=O)COCCOCCNC(=O)CC[C@H](NC(=O)CCCCCCCCCCCCCCCCCCC(=O)O)C(=O)O)NC(=O)[C@H](CCC(N)=O)NC(=O)[C@H](C)NC(=O)[C@@H](NC(=O)[C@H](CCCCN)NC(=O)[C@H](CC(=O)O)NC(=O)[C@H](CC(C)C)NC(=O)C(C)(C)NC(=O)[C@@H](NC(=O)[C@H](CO)NC(=O)[C@H](Cc1ccc(O)cc1)NC(=O)[C@H](CC(=O)O)NC(=O)[C@H](CO)NC(=O)[C@@H](NC(=O)[C@H](Cc1ccccc1)NC(=O)[C@@H](NC(=O)CNC(=O)[C@@H](CC(=O)O)NC(=O)CCCNC(=O)C1(c2ccccc2)CNC(=O)C1)[C@@H](C)O)[C@@H](C)O)[C@@H](C)CC)[C@@H](C)CC)C(C)C)C(=O)N[C@@H](C)C(=O)NCC(=O)NCC(=O)N1CCC[C@H]1C(=O)N[C@@H](CO)C(=O)N[C@@H](CO)C(=O)NCC(=O)N[C@@H](C)C(=O)N1CCC[C@H]1C(=O)N1CCC[C@H]1C(=O)N1CCC[C@H]1C(=O)N[C@@H](CO)C(N)=O` (stereo partly drawn) [Compound 121] ({X27-GABA}-[dD]GTFTSDYSI[Aib]LDKIAQK([AEEA-AEEA-γGlu-C20 diacid])AFVQWLIAGGPSSGAPPPS-NH2), the EC50 in experiment [1] is 10 to 100 nM; in experiment [2] it was over 1000 nM; in experiment [3], over 1000 nM; in experiment [4] it was under 1000 nM. Besides, the Emax came out at 72% in experiment [1] and 76% in experiment [3].

Consider `CC[C@H](C)[C@H](NC(=O)[C@H](CC(C)C)NC(=O)[C@H](Cc1c[nH]c2ccccc12)NC(=O)[C@H](CCC(N)=O)NC(=O)[C@@H](NC(=O)[C@H](Cc1ccccc1)NC(=O)[C@H](C)NC(=O)[C@H](CCCCNC(=O)COCCOCCNC(=O)COCCOCCNC(=O)CC[C@H](NC(=O)CCCCCCCCCCCCCCCCCCC(=O)O)C(=O)O)NC(=O)[C@H](CCC(N)=O)NC(=O)[C@H](C)NC(=O)[C@@H](NC(=O)[C@H](CCCCN)NC(=O)[C@H](CC(=O)O)NC(=O)[C@H](CC(C)C)NC(=O)C(C)(C)NC(=O)[C@@H](NC(=O)[C@H](CO)NC(=O)[C@H](Cc1ccc(O)cc1)NC(=O)[C@H](CC(=O)O)NC(=O)[C@H](CO)NC(=O)[C@@H](NC(=O)[C@H](Cc1ccccc1)NC(=O)[C@@H](NC(=O)CNC(=O)[C@H](CCC(=O)O)NC(=O)CCNC(=O)C(C)(C)c1cccnc1)[C@@H](C)O)[C@@H](C)O)[C@@H](C)CC)[C@@H](C)CC)C(C)C)C(=O)N[C@@H](C)C(=O)NCC(=O)NCC(=O)N1CCC[C@H]1C(=O)N[C@@H](CO)C(=O)N[C@@H](CO)C(=O)NCC(=O)N[C@@H](C)C(=O)N1CCC[C@H]1C(=O)N1CCC[C@H]1C(=O)N1CCC[C@H]1C(=O)N[C@@H](CO)C(N)=O` [Compound 239] ({X1-βAla}-EGTFTSDYSI[Aib]LDKIAQK([AEEA-AEEA-γGlu-C20 diacid])AFVQWLIAGGPSSGAPPPS-NH2), for which the EC50 is under 0.1 nM in experiment [1], under 1000 nM in experiment [2], 1 to 10 nM in experiment [3] and over 1000 nM in experiment [4]. In addition, the figures for the maximum response (Emax) in experiment [1] and in experiment [3] were 91% and 99%, respectively.
